Results taken from US20230263817A1, “HIGH DOSE NICOTINAMIDE ADENINE DINUCLEOTIDE (NAD) PRECURSOR REGIMENS FOR REDUCTION OF INFLAMMATION IN HUMAN PATIENTS WITH PREEXISTING INFLAMMATION” (University of Washington, priority 2021, published 2023).
“Also recorded” adds a separate entry of the source.

How the values were obtained:
[1] = test system: PBMCs of heart failure patients; assay: Seahorse OCR of HF PBMCs after 4-hour in vitro NR treatment; type: cell-based, human; settings: HF PBMC, 4-hour 1 mM NR vs vehicle
Protocol: PBMC and Monocyte isolation. 30-60 ml of fasting blood was collected into EDTA-containing Vacutainers (BD Mfr #364606). Blood then was diluted (1:1) with RPMI medium (Corning; Cat #17-105-CV) and applied to Histopaque gradient medium (Sigma-Aldrich; Cat #10771) using SepMate-50 (STEMCELL Technologies), and centrifuged at 1200 g for 10 minutes. Top layer contained the enriched peripheral blood mononuclear cells (PBMCs) which were collected and followed by centrifugation at 300 g for 10 minutes. The pellet was resuspended with ACK lysis buffer (Gibco; Cat. A1049201) and incubated at room temperature for 5 minutes to remove residual red blood cells. Next, the enriched PBMCs were washed twice with RPMI medium. All PBMC samples were subjected to the baseline Seahorse Mito Stress Test. When available, the remaining cells were used for cytokine mRNA quantitative PCR and in vitro assays. For monocyte isolation, a magnetic bead-based negative-selection monocyte isolation kit (Miltenyi Biotec, 130-096-537) was used per the manufacturer's instructions. […]
Seahorse Mito Stress Test. Oxygen consumption rate (OCR) of freshly isolated PBMCs was assessed using a Seahorse XFe24 analyzer (Agilent Technologies). […]

[2] = Randomized trial of NR in HFrEF: whole blood NR and NAD+ levels; type: in vivo, human
Protocol: At Week 0 (Randomization), participants underwent history, repeat 6MWD assessment and baseline transthoracic echocardiogram (FIG. 15). NR or matching placebo were started at the initial dose of 250 mg orally twice daily, then up-titrated by 250 mg twice daily each week to a final dose of 1000 mg twice daily by Week 3. Participants were continued on the 1000 mg twice daily dose until the final clinic visit on Week 12. Blood draws for study labs, including levels of NR and NAD were obtained at Weeks 0, 2, 4 and 12. Medications were dispensed at Weeks 0, 2, 4 and 8, with pill counts performed at Weeks 2, 4, 8 and 12. A telephone visit was performed at Week 6. The final echocardiogram and PBMC mitochondrial respiration assays were performed at Week 12. Study labs were performed by the UW Research Testing Service, except for NR and NAD+ assays, which were performed by the Pharmacokinetics Laboratory, Department of Pharmaceutics, UW School of Pharmacy. Procedures for blood collection and processing, as well as NR and NAD+ assay procedures, have been described previously (Airhart S E, et al., PLoS One. 2017, 12:e0186459).

[3] = test system: secreted IL6 protein of healthy PBMC; assay: IL6 ELISA of supernatant of cultured healthy PBMCs; type: cell-based, human; settings: 4-hour 1 mM NR in the presence of MitoDAMP
Protocol: IL6 ELISA. Isolated PBMCs (4×10^6 cells per sample) from healthy or HF participants were resuspended in RPMI medium containing 10% heat-inactivated FBS and treated with various proinflammatory triggers (Vehicle, MitoDAMP, LPS) and compounds (NR, MCC 950, MitoTempo, or LMT-28) to final PBMC concentrations of 10×10^6 cells per mL. See below for detailed descriptions of the reagents. The samples were incubated in Eppendorf tubes at 37° C. in a 5% CO2 incubator with caps open for times designated in the brief description of drawings. The cultured PBMC samples were centrifuged at 8,000 RPM at room temperature. The supernatant was used for ELISA per the manufacture protocol using R&D Systems human IL6 kit (Cat #DY206-05). The cell pellets were stored in −80° C.

[4] = test system: healthy PBMCs; assay: Seahorse Mito Stress Test (OCR) of healthy PBMCs after 4-hour in vitro treatment; type: cell-based, human
Protocol: PBMC and Monocyte isolation. 30-60 ml of fasting blood was collected into EDTA-containing Vacutainers (BD Mfr #364606). Blood then was diluted (1:1) with RPMI medium (Corning; Cat #17-105-CV) and applied to Histopaque gradient medium (Sigma-Aldrich; Cat #10771) using SepMate-50 (STEMCELL Technologies), and centrifuged at 1200 g for 10 minutes. Top layer contained the enriched peripheral blood mononuclear cells (PBMCs) which were collected and followed by centrifugation at 300 g for 10 minutes. The pellet was resuspended with ACK lysis buffer (Gibco; Cat. A1049201) and incubated at room temperature for 5 minutes to remove residual red blood cells. Next, the enriched PBMCs were washed twice with RPMI medium. All PBMC samples were subjected to the baseline Seahorse Mito Stress Test. When available, the remaining cells were used for cytokine mRNA quantitative PCR and in vitro assays. For monocyte isolation, a magnetic bead-based negative-selection monocyte isolation kit (Miltenyi Biotec, 130-096-537) was used per the manufacturer's instructions. Briefly, antibody-conjugated magnetic bead solution was added to isolated PBMCs resuspended in RPMI containing 0.5% BSA and incubated for 20 minutes at 4° C., followed by magnetic column binding and elution. The procedure was repeated once to improve the purity of monocytes. The monocytes were washed once with RPMI prior to subsequent experiments.
Seahorse Mito Stress Test. Oxygen consumption rate (OCR) of freshly isolated PBMCs was assessed using a Seahorse XFe24 analyzer (Agilent Technologies). Briefly, purified PBMCs were resuspended in Seahorse base medium (Agilent Technologies, supplemented with 1 mM pyruvate, 2 mM glutamine, and 10 mM glucose, pH 7.4), and added 10^6 cells/well at equal volume of 500 μL in a Seahorse 24-well plate. The cells were maintained in a non-CO2 incubator and allowed to settle for 30 minutes at 37° C. Next, the plate was centrifuged at 40 g for 10 minutes at room temperature without application of the brake to help cells attach to the bottom of the plate. Drugs used in the assay: 5 μM oligomycin A (Sigma-Aldrich; Cat. 75351), 3 μM Trifluoromethoxy carbonylcyanide phenylhydrazone (FCCP) (Sigma-Aldrich; Cat. C2920), 1 μM Rotenone (Sigma-Aldrich; Cat. […]), 1 μM Antimycin A (Sigma-Aldrich; Cat. […]), 0.5 mM TMPD (Sigma-Aldrich; Cat. T7394) and 10 mM Ascorbate (Sigma-Aldrich; Cat. 95209).
PBMC and Monocyte Culture. Freshly isolated PBMCs or Monocytes from healthy or HF subjects were resuspended with RPMI medium plus 10% heat inactivated FBS. PBMCs (10^6 cells/well) were seeded in Seahorse 24-well plates and incubated at 37° C. in CO2 incubator with various proinflammatory triggers (Vehicle, MitoDAMP, LPS) and compounds (NR, MCC 950, MitoTempo, or LMT-28). After 4 hours incubation, the plate was centrifuged at 40 g for 10 minutes at room temperature without application of the brake to help cells attach to the bottom of the plate. The cells were washed twice and then brought up to 500 μL using Seahorse base medium (Agilent Technologies, supplemented with 1 mM pyruvate, 2 mM glutamine, and 10 mM glucose, pH 7.4).

[5] = healthy PBMC, 4-hour 1 mM NR vs vehicle, absence of MitoDAMP

In the case of `NC(=O)c1ccc[n+]([C@@H]2O[C@H](CO)[C@@H](O)[C@H]2O)c1` [NR, nicotinamide riboside], the “basal OCR” value [1] is reported as “increased”, the “maximal OCR” value [1] is reported as “increased” and the “changes in whole blood NAD+ levels on-trial (Week 12-Week 0), Mean+SE” value ([2]; NR group) is reported as 30 ± 20 µM. The “blood NAD+ levels during the up-titration period” value ([2]; NR group, Week 0 to Week 4, maintained through Week 12) was “dose-dependent increase”, the “whole blood NAD+ levels at 4 h post-dose vs pre-NR dose” value ([2]; Week 4 visit, 1000 mg NR dose) was “unchanged” and the “whole blood NR levels 4 h post-dose vs pre-dose” value ([2]; Week 4 visit, 1000 mg NR dose) was “tended to increase; also recorded: rose significantly”. The “whole blood NAD+ levels” value ([2]; clinically-stable HF patients, NR treatment) was “doubled”, the concentration at 12 weeks ([2]; human, whole blood, oral, 1000 mg twice daily, NR group, read-out: on-trial changes in whole blood NR levels (Week 12-Week 0), Mean±SE) was 2 nM and the “blood NR level before the daily dose was administered” value ([2]; trough, throughout the study) was “low and variable”. For the same compound, the IL6 secretion [3] was “reduction”, the “basal OCR” value [4, 5] was “increased” and the “maximal OCR” value [4, 5] was “increased”. For the same compound, the “MitoDAMP-induced decline of maximal OCR” value ([4]; healthy PBMC, 4-hour MitoDAMP with 1 mM NR) was “partially prevented” and the “maximal OCR” value ([4]; healthy PBMCs, 4-hour 10 ng/mL LPS with 1 mM NR) was “enhancing”.
